Laboratory results reported in US7297481B2, “Detection of DNA damage” (ESA Biosciences, Inc., priority 2000, dated 2007).

Assays:
[1] = Urine 8OH2′dG levels in individuals exposed to chemicals; type: in vivo, human; conditions: individuals exposed to the substance
[2] = Effect of simple antioxidants on levels of 8OH2′dG; type: in vivo
[3] = tested on: C. Elegans; test: 8OH2′dG production (DNA damage rate) in C. Elegans culture; type: in vivo
Excerpt: 2. Relevant to the use of DNA damage rate measurements to cancer diagnosis I have observed that in C. Elegans culture there is a burst of 8OH2′dG production during the stage of rapid replication of the gonadal cells. In similar experiments I observed that a toxin (3 nitro propionic acid, 3NP) increased the rate of DNA damage during replication.
4. […] In rapid cell replication in C. Elegans, in 3NP insulted C.

[4] = Dialysis studies of 8OH2′dG in extracellular matrix, probes in brain and muscle; type: in vivo; conditions: extracellular matrix vs free levels inside cellular material, brain and muscle of rat and mouse
Excerpt: (§1) 1. Dialysis studies of 8OH2′dG in extracellular matrix with probes placed in brain and muscle of rat and mouse to measure the rate of production and excretion compared with the free levels inside the cellular material confirm that excretion from the cells is rapid. Similarly, comparison of CSF, Plasma and urinary levels of ca 1:10:2000 in ca 100 ALS and control subjects confirm that the rate of clearance from the body is high.

[5] = Comparison of CSF, plasma, urine, saliva and sweat levels of 8OH2′dG; type: in vivo, human
Excerpt: as §1

## Nc1ccccc1 [aniline]
[1]
  Urine levels of 8OH2′dG: significantly increased

## Tocopherol
[2]
  effect on the levels of 8OH2′dG: no effect

## [As] [arsenic]
[1]
  Urine levels of 8OH2′dG: significantly increased

## Cc1ccccc1N [o-toluidine]
[1]
  Urine levels of 8OH2′dG: significantly increased

## O=C(O)CC[N+](=O)[O-] [3NP, 3 nitro propionic acid]
[3]; after exposure
  rate of damage after the toxin was removed: still maintained at a higher level
[3]; toxin exposure
  rate of DNA damage during replication: increased

## O=C1O[C@H]([C@@H](O)CO)C(O)=C1O [Ascorbate]
[2]
  effect on the levels of 8OH2′dG: no effect

## Nc1nc2c(nc(O)n2[C@H]2C[C@H](O)[C@@H](CO)O2)c(=O)[nH]1 [8OH2′dG, 8 hydroxy 2′ deoxyguanosine]
[4]
  excretion from the cells: rapid
[5]; CSF, plasma and urinary levels ca 1:10:2000 in ca 100 ALS and control subjects
  rate of clearance from the body: high
[5]; saliva or sweat vs. urine levels, plasma of kidney dialysis patients
  mode of removal: urinary excretion is the primary mode of removal
